Source: patent US20230210891A1, “POLYSACCHARIDE COMPOSITIONS AND THERAPEUTIC GELS” (The University of Birmingham, priority 2020, published 2023)
“Also recorded” adds a separate entry of the source.

Experiments:
[1] = test system: rat experimental model of glaucoma; experiment: Study 2: intraocular pressure in rat experimental model of glaucoma (IC TGFβ1); type: in vivo; conditions: 10 µl eye drop twice a day, day 14 to 28
Description: A rat experimental model of glaucoma was used. All rats received twice weekly intracameral (IC) injections of 3.5 µl 5 µg/ml TGFβ1 from the start of the experiment (day 0) until the end (day 28). This establishes the experimental glaucoma model.
Intraocular pressure (IOP) measures were taken twice weekly using a rebound tonometer, between the hours of 9-11am (to reduce circadian fluctuations in IOP) and before TGFβ injections were administered.
On day 14 rats then also received a single 10 µl eye drop (ED) of either a composition of the invention or a composition representing the standard of care. The eyedrops were administered by pipette, twice a day, every day between day 14 and day 28. Gellan fluid gels were prepared as describe above, and the various sulphated polysaccharides investigated (dextran sulphate, fucoidan, or heparan sulphate) were mixed into the fluid gel at a concentration of 1 mg/ml prior to administration as a single formulation eye drop.
The most common eye drop prescribed clinically for the treatment of glaucoma is latanoprost 50 µg/ml (Xalatan®). Therefore, this treatment was used in this study for the standard of care (SOC).
The groups investigated in the study were as follows: […]

[2] = target: T1, Collagen - Rat tail (Rattus norvegicus, UniProt P02454+P02466); experiment: Collagen fibrillogenesis assay (turbidity, 405 nm plate reader); type: biochemical; conditions: for inhibition of collagen fibrillogenesis / collagen fibril formation: increasing doses of polymer
T1 construct: purchased Corning; host or cells: rat tail
Description: Collagen fibrillogenesis was undertaken using collagen acquired from Corning to assess the ability of carrageenans with different degrees of sulphation, gellan gum (LA) and heparan sulphate on their ability to alter fibrillogenesis.
• PBS - Dulbecco’s PBS pH 7.4 • Carrageenans (iota and kappa) (Sigma) • (CGLA) (Kelcogel; Lot #: 5C1623A) • Heparan sulphate (Tinzaparin - mw ~ 9000) • Collagen - Rat tail - Corning 4.04 mg/ml • Deionised water
1. Preparation of stock solutions: • a. A 0.2% (w/v) solution of both carrageenans, gellan and heparan in water were prepared. (0.1 g polymer in 50 ml water) • b. Mixtures were stirred until fully dispersed/hydrated. (prevent water loss by covering the beaker)
2. Preparation of Buffers: • a. PBS diluent buffer; • i. To 200 ml deionised water add sodium phosphate (0.35 g) (0.348 g)and sodium chloride (2.05 g) (2.061 g) • ii. Adjust pH to 7.40 and adjust final volume to 250 ml. • iii. Store at room temperature. • b. PBS reaction buffer; • i. To 200 ml deionised water add sodium phosphate (2.07 g) (2.081 g) and sodium chloride (4.09 g) (4.091 g) • ii. Adjust pH to 7.40. • iii. Add deionised water to create a final volume of 250 ml. • iv. Store at room temp.
3. Collagen fibrillogenesis assay: • a. Pipette […] of buffer (PBS) into rows A and B for blanks. • b. Standard curve generated in a dilution plate. Add 150 ml of each preparation into C1, D1 and E1. • c. Add 150 mL of sample to rows F1, G1 and H1. • d. Add […] of buffer (PBS) to the additional columns 2 to 12. • e. Using a multi-channel pipette, preform a 2-fold dilution by transferring […] from column 1 to column 2. Continue serial diluting through to column 12. Discard the extra […] from column 12. • f. Calculate volume of collagen needed to make 10 ml (enough for 1 plate) at a concentration of […] in chilled water and gently mix.
Target conc. (0.8 mg/ml)Collagen stock conc. in mg/ml × 10=ml of collagen required
10 ml- ?ml of collagen required= ??ml of water required • a. Add […] of collagen to each row (B to H). • b. Add 150 ml of phosphate buffer to all of the wells. • c. Incubate for 2-4 hrs at room temperature and analysed using 405 nm plate reader. (correct for the plate by using 570 nm reference)
Each sample was replicated 3 times, two polymers in each plate (2 plates total). Collagen standard and pbs only were obtained on each plate.

T1 sequence (P02454 152-1207 limits assumed): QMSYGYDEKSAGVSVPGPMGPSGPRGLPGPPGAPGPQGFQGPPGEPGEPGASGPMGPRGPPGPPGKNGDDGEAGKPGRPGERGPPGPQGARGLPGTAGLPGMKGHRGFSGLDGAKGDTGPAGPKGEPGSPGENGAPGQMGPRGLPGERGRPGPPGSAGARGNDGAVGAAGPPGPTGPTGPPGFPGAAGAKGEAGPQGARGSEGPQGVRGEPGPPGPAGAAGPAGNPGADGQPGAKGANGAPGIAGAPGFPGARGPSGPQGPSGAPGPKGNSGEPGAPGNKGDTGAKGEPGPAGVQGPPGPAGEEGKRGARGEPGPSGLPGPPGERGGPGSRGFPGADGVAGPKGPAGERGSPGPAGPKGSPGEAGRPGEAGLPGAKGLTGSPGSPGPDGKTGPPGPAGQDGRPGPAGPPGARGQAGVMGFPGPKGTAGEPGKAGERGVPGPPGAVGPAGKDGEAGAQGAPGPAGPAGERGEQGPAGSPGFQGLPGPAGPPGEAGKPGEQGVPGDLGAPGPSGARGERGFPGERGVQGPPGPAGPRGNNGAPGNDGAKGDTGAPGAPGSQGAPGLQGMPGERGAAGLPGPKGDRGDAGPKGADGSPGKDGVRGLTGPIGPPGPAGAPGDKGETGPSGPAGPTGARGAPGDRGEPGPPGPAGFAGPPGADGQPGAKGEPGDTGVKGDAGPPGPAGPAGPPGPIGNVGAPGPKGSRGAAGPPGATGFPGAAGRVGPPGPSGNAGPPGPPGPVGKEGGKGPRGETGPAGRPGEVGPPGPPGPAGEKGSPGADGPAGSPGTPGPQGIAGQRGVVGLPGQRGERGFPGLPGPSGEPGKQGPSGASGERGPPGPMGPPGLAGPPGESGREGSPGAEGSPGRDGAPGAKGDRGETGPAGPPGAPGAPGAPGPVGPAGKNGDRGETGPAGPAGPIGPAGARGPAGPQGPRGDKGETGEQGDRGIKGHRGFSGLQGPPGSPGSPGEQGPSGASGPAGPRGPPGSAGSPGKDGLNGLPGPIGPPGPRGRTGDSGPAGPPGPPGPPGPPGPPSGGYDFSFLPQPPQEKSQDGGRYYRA
T1 sequence (P02466 86-1125 limits assumed): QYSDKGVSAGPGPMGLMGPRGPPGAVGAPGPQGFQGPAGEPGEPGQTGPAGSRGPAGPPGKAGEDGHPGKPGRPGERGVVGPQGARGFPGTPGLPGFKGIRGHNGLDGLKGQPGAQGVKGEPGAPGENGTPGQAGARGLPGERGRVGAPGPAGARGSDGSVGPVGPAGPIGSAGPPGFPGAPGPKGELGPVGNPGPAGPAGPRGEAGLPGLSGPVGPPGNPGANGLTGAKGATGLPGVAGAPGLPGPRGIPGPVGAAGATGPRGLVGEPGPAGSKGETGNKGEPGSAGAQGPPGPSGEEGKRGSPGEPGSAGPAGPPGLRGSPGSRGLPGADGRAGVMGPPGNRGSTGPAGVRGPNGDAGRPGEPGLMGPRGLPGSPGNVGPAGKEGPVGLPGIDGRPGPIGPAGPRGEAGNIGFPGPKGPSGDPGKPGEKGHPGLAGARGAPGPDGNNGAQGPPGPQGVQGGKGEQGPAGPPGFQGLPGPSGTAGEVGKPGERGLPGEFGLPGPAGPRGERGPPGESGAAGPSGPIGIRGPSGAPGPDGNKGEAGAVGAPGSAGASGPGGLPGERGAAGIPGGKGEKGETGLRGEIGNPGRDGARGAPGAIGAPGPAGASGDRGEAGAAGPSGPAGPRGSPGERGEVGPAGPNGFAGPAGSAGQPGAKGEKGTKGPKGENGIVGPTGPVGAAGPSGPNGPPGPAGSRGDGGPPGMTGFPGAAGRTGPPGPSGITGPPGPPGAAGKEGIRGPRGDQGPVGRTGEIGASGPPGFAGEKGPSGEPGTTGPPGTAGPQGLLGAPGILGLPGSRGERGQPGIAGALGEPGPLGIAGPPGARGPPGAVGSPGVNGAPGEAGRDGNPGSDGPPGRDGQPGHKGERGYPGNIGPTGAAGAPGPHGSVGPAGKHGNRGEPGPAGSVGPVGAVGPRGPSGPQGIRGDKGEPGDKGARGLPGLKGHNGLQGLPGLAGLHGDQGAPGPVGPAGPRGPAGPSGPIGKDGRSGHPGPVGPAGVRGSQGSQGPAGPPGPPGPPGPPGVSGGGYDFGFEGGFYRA

Row | dose required to achieve a 50% reduction in turbidity (rank order; higher degree of sulphonation requires lower dose) [2] | Compound | IOP compared to glaucomatous eyes without any treatment [1] | inhibition of collagen fibrillogenesis / collagen fibril formation [2]
1 |  | CC(C)OC(=O)CCC/C=C\C[C@@H]1[C@@H](CC[C@@H](O)CCc2ccccc2)[C@H](O)C[C@@H]1O [SOC, latanoprost] | significantly reduced IOP | 
2 |  | carrageenan |  | inhibit collagen fibrillogenesis (indicative of an anti-fibrotic activity) in a dose-dependent manner
3 |  | dextran sulphate |  | dose-dependent ability to inhibit collagen fibrillogenesis
4 | lota > lambda > gellan | gellan |  | 
5 |  | heparan sulphate |  | inhibit collagen fibrillogenesis (indicative of an anti-fibrotic activity) in a dose-dependent manner; also recorded: inhibit collagen fibril formation
6 | lota > lambda > gellan | iota carrageenan |  | inhibit collagen fibril formation
7 |  | kappa carrageenan |  | inhibit collagen fibril formation
